Measurements from patent US9399625B2, “Acridone compounds” (Oregon Health & Science University, priority 2006, dated 2016).

Assays:
[1] = Metabolic stability and fate in hepatic S9 fraction with NADPH; type: in vitro ADME, murine; conditions: 50 μM, NADPH 1 mM, 10, 30 and 60 min
Description: This example investigates the metabolic stability and fate of T3.5 in the presence of NADPH and a murine hepatic S9 fraction. Hepatic S-9 fractions were incubated with 50 μM T3.5 in the presence of NADPH (1 mM) for 10, 30 and 60 min. HPLC was conducted with a Hypersil Gold column that is stable at high pH. […] The full scan mass spectrum had the isotopic ratio expected for the chlorine substituted acridone ring. […] The two unresolved peaks most likely represent de-ethylation of the tertiary amine on each side chain.
A second de-ethylation also occurred with the prolonged incubation as evidenced by the peak at 17.5 min when monitored at m/z 388.1 (loss of m/z=56). Another dealkylated metabolite was monitored at m/z 345.1 and corresponds to the loss of the triethylamine side chain (loss of m/z=99) from the acridone ring. The dealkylation could occur from either the aryl ether side chain or from the acridone ring nitrogen. The later would result in the production of the active compound T2. […] In addition to the dealkylated products, a hydroxylated metabolite was also detected by monitoring at m/z 460.2 (addition of m/z=16). The hydroxylation could occur on the acridone ring or on one of the primary carbons on the ethylamine side chains. Further MS/MS experiments will help establish the site of hydroxylation.

[2] = In vitro heme aggregation assay; conditions: 25 mM phosphate buffer, pH 4.8, 30 minutes at room temperature
Description: This example describes the in vitro inhibition of heme aggregation by xanthone 2,3,4,5,6-pentahydroxyxanthone. Conditions: 25 mM Phosphate buffer, pH 5.2, 1 hour incubation at 37° C. Further details of this assay are described by Ignatushchenko et al. in Xanthones as antimalarial agents; studies of a possible mode of action.
This example describes visual evidence that acridones disclosed herein form soluble complexes with heme under mildly acidic conditions. […] Employing the same assay conditions, heme was mixed with T2 or T3.5 under mildly acidic conditions (25 mM phosphate buffer, pH 4.8) and monitored. […] Without being limited to theory, it is believed that for some compounds inhibition of heme aggregation in vitro can be correlated with inhibition of hemozoin formation in vivo.

most abundant metabolites [1]: de-ethylated products
Compound: CCN(CC)CCOc1ccc2c(=O)c3ccc(Cl)cc3n(CCN(CC)CC)c2c1 [T3.5, 3-(2-diethylaminoethoxy)-6-chloro-10-(2-diethylaminoethyl)-9-acridone]
formation of heme aggregates [2]: prevent the formation of heme aggregates
